Assay results taken from patent publication US4755508A, “Benzodiazepine analogs and use as antogonists of gastrin and cholecystokinin” (Merck & Co., Inc., priority 1987, dated 1988).
“Also recorded” adds a separate entry of the source. Where two headings read alike, the source gives them in different places. Where a SMILES comes first, the peptide text is derived from it. [ ]: non-standard residue; d: D form. The star is where a group is joined. sY = N[C@@H](Cc1ccc(OS(=O)(=O)O)cc1)C(=O)O; Cbz = O=C(OCc1ccccc1)*; Boc = CC(C)(C)OC(=O)*

Assays:
CCK receptor = details: structure-function studies; cited from earlier work
[1] = target: T1, CCK receptor (rat pancreas membranes) (Rattus norvegicus, UniProt P30551); test: 125I-CCK receptor binding (pancreas); details: for effect on the 125I-CCK receptor binding assay: added as protease inhibitor
T1 construct: The whole pancreas was dissected free of fat tissue and was homogenized; from tissue; host or cells: pancreas of male Sprague-Dawley rats (membranes)
T1 sequence (P30551 1-444): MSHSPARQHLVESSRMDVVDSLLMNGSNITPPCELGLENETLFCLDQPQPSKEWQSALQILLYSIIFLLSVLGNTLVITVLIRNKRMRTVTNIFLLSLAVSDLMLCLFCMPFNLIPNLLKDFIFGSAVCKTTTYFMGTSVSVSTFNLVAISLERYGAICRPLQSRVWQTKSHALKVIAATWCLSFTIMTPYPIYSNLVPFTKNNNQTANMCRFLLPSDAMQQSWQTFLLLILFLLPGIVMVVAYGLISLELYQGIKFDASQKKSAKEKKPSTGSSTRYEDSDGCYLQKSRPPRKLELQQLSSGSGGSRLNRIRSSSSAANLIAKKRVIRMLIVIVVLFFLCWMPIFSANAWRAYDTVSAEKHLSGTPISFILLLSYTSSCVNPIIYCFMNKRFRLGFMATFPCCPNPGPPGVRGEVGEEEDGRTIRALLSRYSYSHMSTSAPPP
Experimental: CCK-33 was radiolabeled with ^125 I-Bolton Hunter reagent (2000 Ci/mmole) as described by Sankara et al. (J. Biol. Chem. 254: 9349-9351, 1979). Receptor binding was performed according to Innis and Snyder (Proc. Natl. Acad. Sci. 77: 6917-6921, 1980) with the minor modification of adding the additional protease inhibitors, phenylmethane sulfonyl fluoride and o-phenanthroline. The latter two compounds have no effect on the ^125 I-CCK receptor binding assay.
Male Sprague-Dawley rats (200-350 g) were sacrificed by decapitation. The whole pancreas was dissected free of fat tissue and was homogenized in 20 volumes of ice-cold 50 mM, Tris HCl (pH 7.7 at 25° C.) with a Brinkmann Polytron PT 10. The homogenates were centrifuged at 48,000 g for 10 min. Pellets were resuspended in Tris Buffer, centrifuged as above and resuspended in 200 volumes of binding assay buffer (50 mM Tris HCl, pH 7.7 at 25° C., 5 mM dithiothrietol, 0.1 mM bacitracin, 1.2 mM phenylmethane sulfonyl fluoride and 0.5 mM o-phenanthroline). […] All assays were run in duplicate or triplicate. The reaction mixtures were incubated at 37° C. for 30 minutes and centrifuged in a Beckman Microfuge (4 minutes) immediately after adding 1 ml of ice-cold incubation buffer. The supernatant was aspirated and discarded, pellets were counted with a Beckman gamma 5000. For Scatchard analysis (Ann. N.Y. Acad. Sci. 51: 660, 1949), ^125 I-CCK-33 was progressively diluted with increasing concentrations of CCK-33

[2] = target: T2, CCK receptor (guinea pig cerebral cortex) (Cavia porcellus, UniProt H0VZC5); test: 125I-CCK receptor binding (brain); details: 125I-CCK-33, guinea pig cerebral cortex, 25° C., 2 hours
T2 construct: Cerebral cortex was dissected and used as a receptor source; from tissue; host or cells: cerebral cortex of male Hartley guinea pigs (membranes)
Experimental: CCK-33 was radiolabeled and the binding was performed according to the description for the pancreas method with modifications according to Saito et al., J. Neurochem. 37, 483-490, 1981.
Male Hartley guinea pigs (300-500 g) were sacrificed by decapitation and the brains were removed and placed in ice-cold 50 mM, Tris HCl plus 7.58 g/l Trizma-7.4 (pH 7.4 at 25° C.). Cerebral cortex was dissected and used as a receptor source. Each gram of fresh guinea pig brain tissue was homogenized in 10 ml of Tris Trizma buffer with a Brinkman polytron PT-10. The homogenates were centrifuged at 42,000 g for 15 min. […] All assays were run in duplicate or triplicate. The reaction mixtures were incubated at 25° C. for 2 hours and centrifuged in a Beckman Microfuge (4 minutes) immediately after adding 1 ml of ice-cold incubation buffer. The supernatant was aspirated and discarded, pellets were counted with a Beckman gamma 5000.

gastrin receptor = target: T3, gastrin receptor (Cavia porcellus, UniProt H0VZC5); test: Gastrin receptor binding in guinea pig gastric glands; details: guinea pig gastric mucosal glands
T3 construct: Gastric mucosa from guinea pigs (300-500 g body weight, male Hartley) were washed thoroughly and minced; from tissue; host or cells: gastric mucosal glands of male Hartley guinea pigs
Experimental: Gastrin antagonist activity of compounds of Formula I is determined using the following assay: […]
GASTRIN RECEPTOR BINDING IN GUINEA PIG GASTRIC GLANDS
Guinea pig gastric mucosal glands were prepared by the procedure of Berglingh and Obrink Acta Physiol. Scand. 96: 150 (1976) with a slight modification according to Praissman et al. C. J. Receptor Res. 3: (1983). Gastric mucosa from guinea pigs (300-500 g body weight, male Hartley) were washed thoroughly and minced with fine scissors in standard buffer consisting of the following: 130 mM NaCl, 12 mM NaHCO3, 3 mM NaH2 PO4, 3 mM Na2 HPO4, 3 mM K2 HPO4, 2 mM MgSO4, 1 mM CaCl2, 5 mM glucose and 4 mM L-glutamine, 25 mM HEPES at pH 7.4. The minced tissues were washed and then incubated in a 37° C. shaker bath for 40 minutes with the buffer containing 0.1% collagenase and 0.1% BSA and bubbled with 95% O2 and 5% CO2. The tissues were passed twice through a 5 ml glass syringe to liberate the gastric glands, and then filtered through 200 mesh nylon. The filtered glands were centrifuged at 270 g for 5 minutes and washed twice by resuspension and centrifugation.

gastrin = details: in vitro; cited from earlier work
[3] = 125I-CCK-33, rat pancreas, 37° C., 30 minutes, read-out: IC50 (uM) 125I-CCK Pancreas

T2 sequence (H0VZC5 entry or part of it): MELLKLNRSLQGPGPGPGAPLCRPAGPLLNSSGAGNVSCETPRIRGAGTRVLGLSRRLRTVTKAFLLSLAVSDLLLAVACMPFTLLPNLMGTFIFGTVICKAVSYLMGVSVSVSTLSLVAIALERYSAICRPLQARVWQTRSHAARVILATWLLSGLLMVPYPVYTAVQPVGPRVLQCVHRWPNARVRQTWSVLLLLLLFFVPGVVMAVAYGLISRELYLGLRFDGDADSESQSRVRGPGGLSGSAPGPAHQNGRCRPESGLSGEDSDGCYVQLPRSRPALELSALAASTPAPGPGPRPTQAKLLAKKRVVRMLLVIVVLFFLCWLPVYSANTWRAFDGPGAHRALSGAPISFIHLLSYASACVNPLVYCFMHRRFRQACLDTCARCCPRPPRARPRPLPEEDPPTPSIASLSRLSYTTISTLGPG
T3 sequence (H0VZC5 entry or part of it): as above

SMILES | IC50 [1, 3] | IC50 [2] | also measured
CSCC[C@H](NC(=O)OC(C)(C)C)C(=O)N[C@@H](CC(=O)O)C(=O)N[C@@H](Cc1ccccc1)C(N)=O [Boc-Met-Asp-Phe-NH2] (Boc-Met-Asp-Phe-NH2) | – | – | CCK antagonist activity (CCK receptor): can function as CCK antagonists
CSCC[C@H](NC(=O)[C@H](Cc1ccc(OS(=O)(=O)O)cc1)NC(=O)OCc1ccccc1)C(=O)NCC(=O)N[C@@H](Cc1c[nH]c2ccccc12)C(=O)N[C@@H](CCSC)C(=O)N[C@@H](CC(=O)O)C(N)=O [Cbz-Tyr(SO3 H)-Met-Gly-Trp-Met-Asp-NH2] (Cbz-[sY]MGWMD-NH2) | – | – | CCK antagonist activity (CCK receptor): can function as CCK antagonists; also recorded: partial agonist
Fc1ccccc1C1=N[C@H](Cc2c[nH]c3ccccc23)C(Nc2ccccc2)=Nc2ccccc21 [Example 1, 2-Phenylamino-3(R)-(3'-indolyl)methyl-5-(2'-fluorophenyl)-2H-1,4-benzodiazepine] | 34 µM | 100 µM | –
NC1=Nc2ccccc2C(c2ccccc2F)=N[C@@H]1Cc1c[nH]c2ccccc12 [Example 3, 2-Amino-3(R)-(3'-indolyl)methyl-5-(2'-fluorophenyl)-2H-1,4-benzodiazepine] | – | – | IC50 [1]: 1.7 µM
CNC1=Nc2ccccc2C(c2ccccc2F)=N[C@@H]1Cc1c[nH]c2ccccc12 [Example 4, 2-Methylamino-3(R)-(3'-indolyl)methyl-5-(2'-fluorophenyl)-2H-1,4-benzodiazepine] | 4.5 µM | > 100 µM | IC50 (gastrin receptor): 67 µM
CCOC(=O)CNC1=Nc2ccccc2C(c2ccccc2F)=N[C@@H]1Cc1c[nH]c2ccccc12 [Example 5, 2-Ethoxycarbonylmethylamino-3(R)-(3'-indolyl)methyl-5-(2'-fluorophenyl)-2H-1,4-benzodiazepine] | 23 µM | 49 µM | –
N#CNC1=Nc2ccccc2C(c2ccccc2F)=N[C@@H]1Cc1c[nH]c2ccccc12 [Example 6, 2-Cyanoamino-3(R)-(3'-indolyl)methyl-5-(2'-fluorophenyl)-2H-1,4-benzodiazepine] | 2 µM | 100 µM | –
CCCNC1=Nc2ccccc2C(c2ccccc2F)=N[C@@H]1Cc1c[nH]c2ccccc12 [Example 7, 2-Propylamino-3(R)-(3'-indolyl)methyl-5-(2-fluorophenyl)-2H-1,4-benzodiazepine] | – | > 100 µM | IC50 [1]: 2.7 µM
O=C(O)CNC1=Nc2ccccc2C(c2ccccc2F)=N[C@@H]1Cc1c[nH]c2ccccc12 [Example 8, 2-Carboxymethylamino-3(R)-(3'-indolyl)methyl-5-(2'-fluorophenyl)-2H-1,4-benzodiazepine] | 3.6 µM | 31 µM | IC50 (gastrin receptor): 2.7 µM
O=C(O)CNC1=Nc2ccccc2C(c2ccccc2)=NC1NC(=O)Nc1ccc(Cl)cc1 (centres unmarked) [Example 9, N-[3-(((4-Chlorophenyl)aminocarbonyl)amino)-5-phenyl-3H-1,4-benzodiazepin-2-yl]-glycine] | 0.069 µM | 0.11 µM | IC50 (gastrin receptor): 0.032 µM
CCOC(=O)CNC1=Nc2ccccc2C(c2ccccc2)=NC1NC(=O)Nc1ccc(Cl)cc1 (centres unmarked) [Example 10, N-[3-(((4-Chlorophenyl)aminocarbonyl)amino)-5-phenyl-3H-1,4-benzodiazepin-2-yl]-glycine ethyl ester] | 1.4 µM | – | –
CSCC[C@H](N)C(=O)N[C@@H](CC(=O)O)C(=O)N[C@@H](Cc1ccccc1)C(N)=O [Met-Asp-Phe-NH2] (H-Met-Asp-Phe-NH2) | – | – | CCK antagonist activity (CCK receptor): can function as CCK antagonists
CCCC(=O)Nc1nc2c(ncn2[C@@H]2O[C@@H]3COP(=O)(O)O[C@H]3[C@H]2OC(=O)CCC)c(=O)[nH]1 [dibutyryl cyclic GMP] | – | – | CCK antagonist activity (CCK receptor): the most potent
c1cnc2c(c1)ccc1cccnc12 [o-phenanthroline, reference compound] | – | – | effect on the 125I-CCK receptor binding assay [1]: no effect
O=S(=O)(F)Cc1ccccc1 [phenylmethane sulfonyl fluoride, reference compound] | – | – | effect on the 125I-CCK receptor binding assay [1]: no effect
CCCN(CCC)C(=O)C(CCC(=O)O)NC(=O)c1ccccc1 (centres unmarked) [proglumide] | – | – | gastrin antagonist activity (gastrin): very weak in vitro antagonists
